Test results from US10647682B2, “Salts of 2,6-dimethylpyrimidone derivatives and uses thereof” (SUNSHINE LAKE PHARMA CO., LTD., priority 2016, dated 2020).
Where two headings read alike, the source gives them in different places.

Experiments:
[1] = Pharmacokinetics experiments of the salts, oral capsules in Beagle dogs; conditions: 5 mg/kg
Experimental: (§1) (3-(4-(dihexylamino)-3-fluorophenyl)-2,6-dimethylpyrimidin-4(3H)-one), crystalline forms of the various salts were filled into capsules, which were administered orally.
(§2) Blood samples were collected at 0.25, 0.5, 1.0, 2.0, 4.0, 6.0, 8.0, 12 and 24 hours after the administration. Standard curve was plotted based on concentrations of the samples in a suitable range, the concentrations of test compounds in plasma samples were determined by using Agilent 6430 LC-MS/MS under MRM mode, and quantitative analysis was performed. Pharmacokinetic parameters were calculated according to drug concentration-time curve using a noncompartmental method by WinNonLin 6.3 software.

[2] = High temperature test (stability); format: physicochemical; conditions: 60° C.; for purity: HPLC
Experimental: High temperature test: an appropriate amount of sample was put in a weighing bottle in the form of a thin layer of ≤5 mm, under a temperature of 60° C. for 10 days. Samples were took at fifth and tenth day, appearance was observed and purity was detected by HPLC.

[3] = High humidity test (stability); format: physicochemical; conditions: 25° C., RH 90%±5%, HPLC
Experimental: High humidity test: an appropriate amount of sample was put in a weighing bottle in the form of a thin layer of ≤5 mm, under a temperature of 25° C. and RH 90%±5% for 10 days. Samples were took at fifth and tenth day, appearance was observed and purity was detected by HPLC.

[4] = dog, in vivo, po, 5 mg/kg
Experimental: as §1, §2

| Structure (SMILES) | purity ([2]; 0 d) [%] | purity ([2]; 5 d) [%] | purity ([2]; 10 d) [%] | purity ([3]; 0 d) [%] | purity ([3]; 5 d) [%] | purity ([3]; 10 d) [%] | AUCINF ([1]; male Beagle dogs, oral capsule) [ng·h/mL] | AUClast ([1]; male Beagle dogs, oral capsule) [ng·h/mL] | Cmax ([1]; male Beagle dogs, oral capsule) [ng/mL] | MRTINF ([1]; male Beagle dogs, oral capsule) [h] | T1/2 ([1]; male Beagle dogs, oral capsule) [h] | Tmax ([1]; male Beagle dogs, oral capsule) [h] | AUCINF [4] [ng·h/mL] | AUClast [4] [ng·h/mL] | Cmax [4] [ng/mL] | MRTINF [4] [h] | T1/2 [4] [h] | Tmax [4] [h] | exposure compared to free compound (I) [4] | further results |
| --- | --- | --- | --- | --- | --- | --- | --- | --- | --- | --- | --- | --- | --- | --- | --- | --- | --- | --- | --- | --- |
| CCCCCCN(CCCCCC)c1ccc(-n2c(C)nc(C)cc2=O)cc1F [Compound (I), 3-(4-(dihexylamino)-3-fluorophenyl)-2,6-dimethylpyrimidin-4(3H)-one] | – | – | – | – | – | – | – | – | – | – | – | – | – | – | – | – | – | – | – | AUC(0-inf) ([1]; male, Beagle, dog, plasma, po): 2320 ng·h/mL; AUC(0-t) ([1]; male, Beagle, dog, plasma, po): 1730 ng·h/mL; Cmax ([1]; male, Beagle, dog, plasma, po): 244 ng/mL; MRT inf ([1]; male, Beagle, dog, plasma, po): 23.3 h; Tmax ([1]; male, Beagle, dog, plasma, po): 1.17 h; half-life ([1]; male, Beagle, dog, plasma, po): 828 min |
| CCCCCCN(CCCCCC)c1ccc(-n2c(C)nc(C)cc2=O)cc1F.Cl [Example 1, 3-(4-(dihexylamino)-3-fluorophenyl)-2,6-dimethylpyrimidin-4(3H)-one Hydrochloride Crystal-I] | 99.81 | 99.80 | 99.79 | 99.81 | 99.79 | 99.80 | 6310 | 4470 | 364 | 41.9 | 34.5 | 2.33 | – | – | – | – | – | – | – | – |
| CCCCCCN(CCCCCC)c1ccc(-n2c(C)nc(C)cc2=O)cc1F.Cl [Example 2, 3-(4-(dihexylamino)-3-fluorophenyl)-2,6-dimethylpyrimidin-4(3H)-one Hydrochloride Crystal-II] | 99.85 | 99.86 | 99.83 | 99.85 | 99.86 | 99.82 | – | – | – | – | – | – | 2820 | 2940 | 485 | 9.43 | 9.54 | 8.83 | relative higher exposure | – |
| CCCCCCN(CCCCCC)c1ccc(-n2c(C)nc(C)cc2=O)cc1F.Cc1ccc(S(=O)(=O)O)cc1 [Example 6, 3-(4-(dihexylamino)-3-fluorophenyl)-2,6-dimethylpyrimidin-4(3H)-one Tosilate Crystal-I] | 99.83 | 99.81 | 99.81 | 99.83 | 99.80 | 99.83 | 3010 | 2720 | 329 | 17.5 | 17.5 | 2 | – | – | – | – | – | – | – | exposure compared to free compound (I) ([1]; male Beagle dogs, oral capsule, conclusion from table 1): relative higher exposure |
| CCCCCCN(CCCCCC)c1ccc(-n2c(C)nc(C)cc2=O)cc1F.O=C(O)/C=C\C(=O)O [Example 8, 3-(4-(dihexylamino)-3-fluorophenyl)-2,6-dimethylpyrimidin-4(3H)-one Maleate Crystal-I] | 99.53 | 99.49 | 99.05 | 99.53 | 99.51 | 99.49 | – | – | – | – | – | – | 38337.53 | 5859.22 | 588 | 155.21 | 110.28 | 2 | relative higher exposure | appearance ([2]; 0 d): white solid |
